Data as given in patent US10100027B2, “Benzofuran analogue as NS4B inhibitor” (priority 2014, dated 2018).
pEC50: −log10 of the molar value.

Key:
Assay type in all cases: cell-based
[1] = Cytotoxicity in HCV replicon cells (Cell Titer-fluor)
Protocol: (§1) The EC50 and CC50 values of anti-HCV compounds were determined by HCV genotype 1a (HCV-1a) and 1b (HCV-1b) stable transfected replication (replicon) cells. The source of genotype 1a replicon is H77 clones containing K1691R, K2040R and S2204I adaptive mutations. The source of genotype 1b replicon is Con1 clones containing E1202G, T1280I and K1846T adaptive mutations.
(§2) The compound powder was dissolved in 100% DMSO. Then the compound was diluted 5 times with 6 points, and added into the cell plate with Echo liquid handler. Ensure the final concentration of DMSO was 0.5%. Each compound was tested in duplicate.
(§3) 4) Diluting cells to 8×10^4 cells/mL with the culture medium, adding the diluted cells into the compound-containing 96-well plate (Greiner, Cat. #655090) (100 μL/well, 8000 cells/well) with automatic liquid separator (Thermo Scientific). Then place into a 37° C., 5% CO2 incubator for 3 days. Cell control well: no compound, only containing 0.5% DMSO.
5) Adding fluorescence substrate Cell Titer-fluor to the cell well, after incubation for 30 minutes, detecting the signal by microplate reader Envison (Ex at 405 nm and read at 515 nm). The effect of the compounds on the cytotoxicity of HCV replicon cells was analyzed according to the fluorescence data, which was used to calculate the CC50 values.
(§4) The EC50 or CC50 values were obtained by nonlinear fitting regression on inhibition percentage (inh %) data with GraphPad Prism software.

[2] = tested on: HCV genotype 1b (HCV-1b) replicon cells; assay: HCV genotype 1b replicon cell assay (luciferase, Bright-Glo); details: Hepatitis C virus, 72 h, HCV-1b (Con1) replicon cells, 3 days
Protocol: as §1
(§5) HCV 1a (HCV-1a) and 1b (HCV-1b) gene subtype replicon system contains the related HCV gene subtype non-structural protein gene, G418 resistance gene NEO and luciferase gene, which results in that HCV related protein and luciferase can be stably expressed in cells. By detecting the level of expression of luciferase gene, the level of HCV replication can be determined. Therefore, the system is used as a model for screening the activity of anti-HCV compound in vitro.
as §2, §3
(§6) 6) Then adding luciferase substrate Bright-Glo, after incubation for 5 minutes, detecting the luciferase activity by microplate reader Envison (wavelength>700 nm); analyzing the anti-HCV inhibitory activity of the compounds according to luminescence data, which was used to calculate EC50 values.
as §4

[3] = tested on: HCV genotype 1a (HCV-1a) replicon cells; assay: HCV genotype 1a replicon cell assay (luciferase, Bright-Glo); details: Hepatitis C virus, 72 h, HCV-1a (H77) replicon cells, 3 days
Protocol: as §1, §5, §2, §3, §6, §4

Question: Which results are given for `COC1CN(C(=O)C2CCN(C(=O)c3oc4c(C(F)(F)F)cc(C5CC5)cc4c3Cl)CC2)C1` [YD_0340]?
Answer: CC50 at 3 days [1]: > 3 µM; pEC50 [2]: 6.00 to 7.00; pEC50 [3]: 6.00 to 7.00

Question: With `O=C(c1oc2c(C(F)(F)F)cc(C3CC3)cc2c1Cl)N1CCC(C(=O)N2CC(F)C2)CC1` [YD_0342] as the compound, how does the CC50 at 3 days [1] read?
Answer: > 3 µM

Question: And the pEC50 [2]?
Answer: 7.00 to 10.00

Question: What about the pEC50 [3] of the same compound?
Answer: 7.00 to 10.00

Question: For `CN(C)C1CN(C(=O)C2CCN(C(=O)c3oc4c(C(F)(F)F)cc(C5CC5)cc4c3Cl)CC2)C1` [YD_0343], which CC50 at 3 days [1] is on record?
Answer: > 3 µM

Question: And the pEC50 [2]?
Answer: 5.30 to 6.00

Question: And the pEC50 [3]?
Answer: 6.00 to 7.00

Question: With `COC1(C)CN(C(=O)C2CCN(C(=O)c3oc4c(C(F)(F)F)cc(C5CC5)cc4c3Cl)CC2)C1` [YD_0344] as the compound, how does the CC50 at 3 days [1] read?
Answer: > 3 µM

Question: And the pEC50 [2]?
Answer: 5.30 to 6.00

Question: What about the pEC50 [3] of the same compound?
Answer: 6.00 to 7.00

Question: For `CC1(O)CN(C(=O)C2CCN(C(=O)c3oc4c(C(F)(F)F)cc(C5CC5)cc4c3Cl)CC2)C1` [YD_0345], which CC50 at 3 days [1] is on record?
Answer: > 3 µM

Question: What about the pEC50 [2] of the same compound?
Answer: 5.30 to 6.00

Question: What about the pEC50 [3] of the same compound?
Answer: 6.00 to 7.00

Question: With `NC1CN(C(=O)C2CCN(C(=O)c3oc4c(C(F)(F)F)cc(C5CC5)cc4c3Cl)CC2)C1` [YD_0346] as the compound, how does the CC50 at 3 days [1] read?
Answer: > 3 µM

Question: And the pEC50 [2]?
Answer: 6.00 to 7.00

Question: What about the pEC50 [3] of the same compound?
Answer: 6.00 to 7.00

Question: Which results are given for `CC1(C(N)=O)CN(C(=O)C2CCN(C(=O)c3oc4c(C(F)(F)F)cc(C5CC5)cc4c3Cl)CC2)C1` [YD_0348]?
Answer: CC50 at 3 days [1]: > 3 µM; pEC50 [2]: 5.30 to 6.00; pEC50 [3]: 6.00 to 7.00

Question: Which CC50 at 3 days [1] does the source give for `O=C(c1oc2c(C(F)(F)F)cc(C3CC3)cc2c1Cl)N1CCC(C(=O)N2CC(F)(F)C2)CC1` [YD_0349] here?
Answer: > 3 µM

Question: What about the pEC50 [2] of the same compound?
Answer: 6.00 to 7.00

Question: And the pEC50 [3]?
Answer: 6.00 to 7.00

Question: With `CC1CN(C(=O)C2CCN(C(=O)c3oc4c(C(F)(F)F)cc(C5CC5)cc4c3Cl)CC2)C1` [YD_0350] as the compound, how does the CC50 at 3 days [1] read?
Answer: > 3 µM

Question: What about the pEC50 [2] of the same compound?
Answer: 6.00 to 7.00

Question: What about the pEC50 [3] of the same compound?
Answer: 6.00 to 7.00

Question: With `O=C(O)C1CCN1C(=O)C1CCN(C(=O)c2oc3c(C(F)(F)F)cc(C4CC4)cc3c2Cl)CC1` (stereo not drawn) [YD_0351] as the compound, how does the CC50 at 3 days [1] read?
Answer: > 3 µM

Question: And the pEC50 [2]?
Answer: 5.30 to 6.00

Question: What about the pEC50 [3] of the same compound?
Answer: 6.00 to 7.00

Question: Which results are given for `N#CC1CN(C(=O)C2CCN(C(=O)c3oc4c(C(F)(F)F)cc(C5CC5)cc4c3Cl)CC2)C1` [YD_0352]?
Answer: CC50 at 3 days [1]: > 3 µM; pEC50 [2]: 5.30 to 6.00; pEC50 [3]: 6.00 to 7.00

Question: With `NC(=O)C1CN(C(=O)C2CCN(C(=O)c3oc4c(C(F)(F)F)cc(C5CC5)cc4c3Cl)CC2)C1` [YD_0353] as the compound, how does the CC50 at 3 days [1] read?
Answer: > 3 µM

Question: What about the pEC50 [2] of the same compound?
Answer: 5.30 to 6.00

Question: And the pEC50 [3]?
Answer: 6.00 to 7.00

Question: With `O=C(c1oc2c(C(F)(F)F)cc(C3CC3)cc2c1Cl)N1CCC(C(=O)N2CC(CO)C2)CC1` [YD_0355] as the compound, how does the CC50 at 3 days [1] read?
Answer: > 3 µM

Question: And the pEC50 [2]?
Answer: 5.30 to 6.00

Question: What about the pEC50 [3] of the same compound?
Answer: 6.00 to 7.00

Question: With `O=C(c1oc2c(C(F)(F)F)cc(C3CC3)cc2c1Cl)N1CCC(C(=O)N2CC(O)C2)CC1` [YD_0356] as the compound, how does the CC50 at 3 days [1] read?
Answer: > 3 µM

Question: And the pEC50 [2]?
Answer: 7.00 to 10.00

Question: And the pEC50 [3]?
Answer: 7.00 to 10.00

Question: With `O=C(c1oc2c(C(F)(F)F)cc(C3CC3)cc2c1Cl)N1CCN(C2CCCC2)C(=O)N1` [YD_0357] as the compound, how does the CC50 at 3 days [1] read?
Answer: > 3 µM

Question: What about the pEC50 [2] of the same compound?
Answer: 7.00 to 10.00

Question: What about the pEC50 [3] of the same compound?
Answer: 7.00 to 10.00

Question: Which results are given for `O=C(c1oc2c(C(F)(F)F)cc(C3CC3)cc2c1Cl)N1CCN([C@H]2CC[C@H](O)CC2)C(=O)N1` [YD_0365]?
Answer: CC50 at 3 days [1]: > 3 µM; pEC50 [2]: 7.00 to 10.00; pEC50 [3]: 7.00 to 10.00

Question: Which results are given for `CC(C)N1CCN(C(=O)c2oc3c(C(F)(F)F)cc(C4CC4)cc3c2Cl)NC1=O` [YD_0374]?
Answer: CC50 at 3 days [1]: > 3 µM; pEC50 [2]: 7.00 to 10.00; pEC50 [3]: 7.00 to 10.00

Question: Which CC50 at 3 days [1] does the source give for `O=C(c1nn2c(C(F)(F)F)cc(C3CC3)cc2c1Cl)N1CCN(C2CCCC2)C(=O)N1` [YH_0369] here?
Answer: > 3 µM

Question: And the pEC50 [2]?
Answer: 5.30 to 6.00

Question: And the pEC50 [3]?
Answer: 6.00 to 7.00

Question: Which CC50 at 3 days [1] does the source give for `CC(C)N1CCN(C(=O)c2nn3c(C(F)(F)F)cc(C4CC4)cc3c2Cl)NC1=O` [YH_0373] here?
Answer: > 3 µM

Question: And the pEC50 [2]?
Answer: 7.00 to 10.00

Question: And the pEC50 [3]?
Answer: 7.00 to 10.00
